From the kinase profiling compilation of Christmann-Franck et al. (2016)

Key:
Assay in all cases: radiometric filter-binding kinase assay
AURKB (human) = AURKB (human) (UniProt Q96GD4)
AURKC (human) = AURKC (human) (UniProt Q9UQB9)
NEK7 (human) = NEK7 (human) (UniProt Q8TDX7)
PHKG1 (human) = PHKG1 (human) (UniProt Q16816)
CAMKK1 (human) = CAMKK1 (human) (UniProt Q8N5S9)
ABL1 (human) = ABL1 (human) (UniProt P00519)
CDK9 CCNT1 (human) = CDK9 CCNT1 (human) (UniProt P50750+O60563)
CSNK1G2 (human) = CSNK1G2 (human) (UniProt P78368)
DDR2 (human) = DDR2 (human) (UniProt Q16832)
EIF2AK3 (human) = EIF2AK3 (human) (UniProt Q9NZJ5)
IRAK1 (human) = IRAK1 (human) (UniProt P51617)
MAP4K3 (human) = MAP4K3 (human) (UniProt Q8IVH8)
MAP4K5 (human) = MAP4K5 (human) (UniProt Q9Y4K4)
MAPK7 (human) = MAPK7 (human) (UniProt Q13164)
[1] = system: OXSR1 (human), O95747 [T185E]
PDGFRA (human) = PDGFRA (human) (UniProt P16234)
[2] = target: PRKAA1 PRKAB2 PRKAG1 (human) (UniProt O43741+Q13131+P54619)
PRKCG (human) = PRKCG (human) (UniProt P05129)
PTK6 (human) = PTK6 (human) (UniProt Q13882)
SIK2 (human) = SIK2 (human) (UniProt Q9H0K1)
SIK3 (human) = SIK3 (human) (UniProt Q9Y2K2)
STK16 (human) = STK16 (human) (UniProt O75716)
STK24 (human) = STK24 (human) (UniProt Q9Y6E0)
STK33 (human) = STK33 (human) (UniProt Q9BYT3)
TEK (human) = TEK (human) (UniProt Q02763)
TESK1 (human) = TESK1 (human) (UniProt Q15569)
[3] = system: TGFBR1 (human), P36897 [T204D]
TLK1 (human) = TLK1 (human) (UniProt Q9UKI8)
TSSK1B (human) = TSSK1B (human) (UniProt Q9BXA7)
TTBK1 (human) = TTBK1 (human) (UniProt Q5TCY1)
TTBK2 (human) = TTBK2 (human) (UniProt Q6IQ55)
ULK1 (human) = ULK1 (human) (UniProt O75385)
ULK2 (human) = ULK2 (human) (UniProt Q8IYT8)
WNK1 (human) = WNK1 (human) (UniProt Q9H4A3)
ZAP70 (human) = ZAP70 (human) (UniProt P43403)

Sequence of PHKG1 (human) (Q16816 whole entry, looked up): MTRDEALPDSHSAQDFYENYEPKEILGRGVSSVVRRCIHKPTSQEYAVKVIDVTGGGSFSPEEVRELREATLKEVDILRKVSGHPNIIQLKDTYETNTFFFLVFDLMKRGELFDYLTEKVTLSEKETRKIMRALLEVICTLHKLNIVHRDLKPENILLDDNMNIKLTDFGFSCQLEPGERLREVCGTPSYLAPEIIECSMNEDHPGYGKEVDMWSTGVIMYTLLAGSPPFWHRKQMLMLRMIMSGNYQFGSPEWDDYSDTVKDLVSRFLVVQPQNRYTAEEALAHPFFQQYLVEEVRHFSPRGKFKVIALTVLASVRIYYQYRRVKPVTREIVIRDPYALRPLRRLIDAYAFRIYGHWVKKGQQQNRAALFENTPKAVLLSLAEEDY
Sequence of NEK7 (human) (Q8TDX7 whole entry, looked up): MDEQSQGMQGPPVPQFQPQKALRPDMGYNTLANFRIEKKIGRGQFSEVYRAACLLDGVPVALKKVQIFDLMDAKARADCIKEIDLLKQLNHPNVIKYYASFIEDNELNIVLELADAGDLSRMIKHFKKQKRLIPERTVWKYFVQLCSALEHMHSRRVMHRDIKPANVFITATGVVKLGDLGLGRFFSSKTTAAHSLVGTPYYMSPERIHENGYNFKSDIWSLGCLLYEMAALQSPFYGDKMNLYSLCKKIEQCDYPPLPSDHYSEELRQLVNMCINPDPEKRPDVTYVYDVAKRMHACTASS
Sequence of AURKB (human) (Q96GD4 whole entry, looked up): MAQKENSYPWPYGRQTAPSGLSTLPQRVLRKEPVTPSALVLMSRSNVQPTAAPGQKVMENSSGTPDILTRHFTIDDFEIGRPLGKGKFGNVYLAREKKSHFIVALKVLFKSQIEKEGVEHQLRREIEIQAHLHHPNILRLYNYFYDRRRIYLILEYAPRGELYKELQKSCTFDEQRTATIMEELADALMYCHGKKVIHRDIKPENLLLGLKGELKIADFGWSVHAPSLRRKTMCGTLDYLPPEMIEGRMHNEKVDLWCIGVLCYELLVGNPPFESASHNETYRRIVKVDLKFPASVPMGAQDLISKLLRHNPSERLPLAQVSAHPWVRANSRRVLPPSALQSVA
Sequence of CAMKK1 (human) (Q8N5S9 whole entry, looked up): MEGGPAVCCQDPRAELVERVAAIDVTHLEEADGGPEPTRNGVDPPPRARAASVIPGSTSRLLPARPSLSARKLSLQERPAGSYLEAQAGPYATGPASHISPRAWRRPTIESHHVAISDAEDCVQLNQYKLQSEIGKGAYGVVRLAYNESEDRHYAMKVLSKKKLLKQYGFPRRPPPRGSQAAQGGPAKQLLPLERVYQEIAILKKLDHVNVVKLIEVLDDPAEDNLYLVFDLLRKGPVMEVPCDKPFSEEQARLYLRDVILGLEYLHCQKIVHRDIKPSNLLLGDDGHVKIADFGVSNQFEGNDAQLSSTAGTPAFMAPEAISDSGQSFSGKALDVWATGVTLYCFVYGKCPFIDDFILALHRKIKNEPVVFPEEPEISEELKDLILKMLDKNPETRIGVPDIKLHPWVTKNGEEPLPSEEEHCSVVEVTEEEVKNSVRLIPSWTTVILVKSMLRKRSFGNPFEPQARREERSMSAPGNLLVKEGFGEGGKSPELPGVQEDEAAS
Sequence of AURKC (human) (Q9UQB9 whole entry, looked up): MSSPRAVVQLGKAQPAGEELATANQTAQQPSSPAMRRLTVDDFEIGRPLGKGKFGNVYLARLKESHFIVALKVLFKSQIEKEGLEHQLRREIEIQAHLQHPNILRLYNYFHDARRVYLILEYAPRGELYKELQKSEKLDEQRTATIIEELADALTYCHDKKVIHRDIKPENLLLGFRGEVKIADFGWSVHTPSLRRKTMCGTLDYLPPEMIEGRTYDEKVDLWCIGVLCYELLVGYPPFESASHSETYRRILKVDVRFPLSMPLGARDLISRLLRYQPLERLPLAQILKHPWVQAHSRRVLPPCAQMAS
Sequence of MAPK7 (human) (Q13164 whole entry, looked up): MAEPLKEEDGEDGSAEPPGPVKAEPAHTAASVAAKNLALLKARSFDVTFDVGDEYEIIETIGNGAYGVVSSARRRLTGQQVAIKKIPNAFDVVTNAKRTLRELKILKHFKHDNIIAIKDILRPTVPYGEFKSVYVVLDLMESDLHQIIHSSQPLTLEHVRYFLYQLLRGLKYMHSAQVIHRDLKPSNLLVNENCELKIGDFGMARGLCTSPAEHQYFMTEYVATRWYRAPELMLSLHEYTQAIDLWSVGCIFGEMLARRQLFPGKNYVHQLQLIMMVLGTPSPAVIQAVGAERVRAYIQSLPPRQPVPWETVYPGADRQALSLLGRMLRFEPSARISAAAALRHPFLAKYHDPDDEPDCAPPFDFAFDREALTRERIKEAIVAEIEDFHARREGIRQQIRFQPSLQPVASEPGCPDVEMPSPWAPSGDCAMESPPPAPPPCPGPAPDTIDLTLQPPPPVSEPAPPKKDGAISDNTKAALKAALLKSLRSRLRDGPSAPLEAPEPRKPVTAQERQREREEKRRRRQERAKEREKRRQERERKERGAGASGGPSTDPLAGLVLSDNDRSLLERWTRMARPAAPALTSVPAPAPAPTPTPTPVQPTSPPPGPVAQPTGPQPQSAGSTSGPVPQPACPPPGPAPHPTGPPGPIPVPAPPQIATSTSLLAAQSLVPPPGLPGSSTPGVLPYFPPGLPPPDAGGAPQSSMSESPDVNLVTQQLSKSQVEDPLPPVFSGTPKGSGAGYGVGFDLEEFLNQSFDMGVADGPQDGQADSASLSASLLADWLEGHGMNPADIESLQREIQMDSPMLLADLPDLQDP
Sequence of TSSK1B (human) (Q9BXA7 whole entry, looked up): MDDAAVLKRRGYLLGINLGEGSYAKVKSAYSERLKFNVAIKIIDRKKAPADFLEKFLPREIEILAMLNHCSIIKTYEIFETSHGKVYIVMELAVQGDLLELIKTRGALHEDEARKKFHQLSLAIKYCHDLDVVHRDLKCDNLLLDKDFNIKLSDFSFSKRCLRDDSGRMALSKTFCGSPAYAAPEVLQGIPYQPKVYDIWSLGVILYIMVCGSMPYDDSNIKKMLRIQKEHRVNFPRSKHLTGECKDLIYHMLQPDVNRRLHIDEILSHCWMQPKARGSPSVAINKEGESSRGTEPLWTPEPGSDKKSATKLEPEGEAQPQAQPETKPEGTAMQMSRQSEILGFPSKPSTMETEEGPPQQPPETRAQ
Sequence of STK16 (human) (O75716 whole entry, looked up): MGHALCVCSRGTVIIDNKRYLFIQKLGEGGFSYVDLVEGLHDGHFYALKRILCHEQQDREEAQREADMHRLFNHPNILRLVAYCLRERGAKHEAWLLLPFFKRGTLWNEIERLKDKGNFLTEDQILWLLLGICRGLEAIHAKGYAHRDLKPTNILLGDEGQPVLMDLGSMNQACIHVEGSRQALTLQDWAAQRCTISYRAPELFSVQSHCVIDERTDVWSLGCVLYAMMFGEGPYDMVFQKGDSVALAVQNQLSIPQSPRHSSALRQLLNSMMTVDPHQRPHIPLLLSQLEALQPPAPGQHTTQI
Sequence of TLK1 (human) (Q9UKI8 whole entry, looked up): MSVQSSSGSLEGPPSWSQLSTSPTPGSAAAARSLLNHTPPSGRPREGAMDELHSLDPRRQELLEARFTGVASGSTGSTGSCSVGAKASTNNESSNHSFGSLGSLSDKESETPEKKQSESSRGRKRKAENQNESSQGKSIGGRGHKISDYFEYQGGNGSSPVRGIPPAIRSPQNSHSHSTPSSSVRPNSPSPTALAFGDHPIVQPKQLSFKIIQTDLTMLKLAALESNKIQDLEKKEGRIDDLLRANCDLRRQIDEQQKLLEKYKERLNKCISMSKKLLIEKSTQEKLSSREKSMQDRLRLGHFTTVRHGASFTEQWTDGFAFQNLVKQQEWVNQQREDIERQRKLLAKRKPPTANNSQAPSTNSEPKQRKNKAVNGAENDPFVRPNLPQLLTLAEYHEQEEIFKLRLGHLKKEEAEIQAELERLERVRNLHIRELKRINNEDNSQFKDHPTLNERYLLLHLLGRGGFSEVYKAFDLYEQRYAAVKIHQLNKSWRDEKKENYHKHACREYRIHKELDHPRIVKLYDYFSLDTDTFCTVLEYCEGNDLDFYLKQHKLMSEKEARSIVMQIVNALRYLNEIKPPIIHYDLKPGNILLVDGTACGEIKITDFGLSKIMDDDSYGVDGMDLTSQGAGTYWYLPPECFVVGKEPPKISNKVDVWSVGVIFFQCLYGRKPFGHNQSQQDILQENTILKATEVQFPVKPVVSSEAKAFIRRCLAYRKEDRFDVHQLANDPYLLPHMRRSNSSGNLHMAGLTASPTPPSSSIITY

N#Cc1c(O)c2c(-c3ccc(-c4ccccc4O)cc3)csc2[nH]c1=O
residual activity (AURKB (human); compound 10.0 µM): 53% | residual activity (AURKB (human); compound 50.0 µM): 25% | residual activity (AURKB (human); compound 100.0 µM): 22% | residual activity (AURKC (human); compound 50.0 µM): 30% | residual activity (NEK7 (human); compound 50.0 µM): 102% | residual activity (PHKG1 (human); compound 10.0 µM): 96% | residual activity (PHKG1 (human); compound 50.0 µM): 65% | residual activity (PHKG1 (human); compound 100.0 µM): 73%

CCCC(CCC)C(=O)O
residual activity (AURKB (human); compound 1.0 µM): 90% | residual activity (AURKB (human); compound 10.0 µM): 99% | residual activity (AURKB (human); compound 50.0 µM): 83% | residual activity (NEK7 (human); compound 1.0 µM): 99% | residual activity (PHKG1 (human); compound 1.0 µM): 110% | residual activity (PHKG1 (human); compound 10.0 µM): 89% | residual activity (PHKG1 (human); compound 50.0 µM): 81%

Cn1nc(Nc2ccc(F)cc2)c2c(N)ncnc21
residual activity (AURKB (human); compound 1.0 µM): 98% | residual activity (AURKB (human); compound 10.0 µM): 82% | residual activity (AURKC (human); compound 1.0 µM): 125% | residual activity (AURKC (human); compound 10.0 µM): 117% | residual activity (CAMKK1 (human); compound 1.0 µM): 89% | residual activity (CAMKK1 (human); compound 10.0 µM): 112% | residual activity (NEK7 (human); compound 1.0 µM): 94% | residual activity (NEK7 (human); compound 10.0 µM): 99% | residual activity (PHKG1 (human); compound 1.0 µM): 113% | residual activity (PHKG1 (human); compound 10.0 µM): 119%

COc1ccc2c(c1)c1c3c(c4c5ccccc5n(C)c4c1n2CC(O)CN(C)C)C(=O)NC3=O (stereo unspecified)
residual activity (AURKB (human); compound 0.1 µM): 17% | residual activity (AURKB (human); compound 1.0 µM): 14% | residual activity (AURKB (human); compound 10.0 µM): 12% | residual activity (AURKC (human); compound 0.1 µM): 48% | residual activity (AURKC (human); compound 1.0 µM): 13% | residual activity (AURKC (human); compound 10.0 µM): 7% | residual activity (CAMKK1 (human); compound 0.1 µM): 109% | residual activity (CAMKK1 (human); compound 1.0 µM): 97% | residual activity (CAMKK1 (human); compound 10.0 µM): 101% | residual activity (NEK7 (human); compound 0.1 µM): 94% | residual activity (NEK7 (human); compound 1.0 µM): 84% | residual activity (NEK7 (human); compound 10.0 µM): 82% | residual activity (PHKG1 (human); compound 0.1 µM): 77% | residual activity (PHKG1 (human); compound 1.0 µM): 17% | residual activity (PHKG1 (human); compound 10.0 µM): 11%

Oc1ccc(/C=C/c2cc(O)cc(O)c2)cc1
residual activity (AURKB (human); compound 1.0 µM): 97% | residual activity (AURKB (human); compound 10.0 µM): 62% | residual activity (AURKB (human); compound 50.0 µM): 22% | residual activity (AURKC (human); compound 1.0 µM): 75% | residual activity (AURKC (human); compound 50.0 µM): 32% | residual activity (CAMKK1 (human); compound 1.0 µM): 98% | residual activity (CAMKK1 (human); compound 50.0 µM): 30% | residual activity (NEK7 (human); compound 1.0 µM): 94% | residual activity (NEK7 (human); compound 50.0 µM): 95% | residual activity (PHKG1 (human); compound 1.0 µM): 58% | residual activity (PHKG1 (human); compound 10.0 µM): 21% | residual activity (PHKG1 (human); compound 50.0 µM): 23%

CCNc1nc(Nc2cc(F)c(C(=O)N3CCOCC3)cc2OC)ncc1C(F)(F)F
residual activity (ABL1 (human); compound 1.0 µM): 102% | residual activity (ABL1 (human); compound 10.0 µM): 106% | residual activity (AURKB (human); compound 1.0 µM): 55% | residual activity (AURKB (human); compound 10.0 µM): 18% | residual activity (CDK9 CCNT1 (human); compound 1.0 µM): 96% | residual activity (CDK9 CCNT1 (human); compound 10.0 µM): 90% | residual activity (CSNK1G2 (human); compound 1.0 µM): 91% | residual activity (CSNK1G2 (human); compound 10.0 µM): 90% | residual activity (DDR2 (human); compound 1.0 µM): 97% | residual activity (DDR2 (human); compound 10.0 µM): 98% | residual activity (EIF2AK3 (human); compound 1.0 µM): 99% | residual activity (EIF2AK3 (human); compound 10.0 µM): 80% | residual activity (IRAK1 (human); compound 1.0 µM): 100% | residual activity (IRAK1 (human); compound 10.0 µM): 93% | residual activity (MAP4K3 (human); compound 1.0 µM): 69% | residual activity (MAP4K3 (human); compound 10.0 µM): 21% | residual activity (MAP4K5 (human); compound 1.0 µM): 109% | residual activity (MAP4K5 (human); compound 10.0 µM): 90% | residual activity (MAPK7 (human); compound 1.0 µM): 65% | residual activity (MAPK7 (human); compound 10.0 µM): 32% | residual activity ([1]; compound 1.0 µM): 99% | residual activity ([1]; compound 10.0 µM): 54% | residual activity (PDGFRA (human); compound 1.0 µM): 91% | residual activity (PDGFRA (human); compound 10.0 µM): 61% | residual activity (PHKG1 (human); compound 1.0 µM): 23% | residual activity (PHKG1 (human); compound 10.0 µM): 3% | residual activity ([2]; compound 1.0 µM): 71% | residual activity ([2]; compound 10.0 µM): 29% | residual activity (PRKCG (human); compound 1.0 µM): 108% | residual activity (PRKCG (human); compound 10.0 µM): 95% | residual activity (PTK6 (human); compound 1.0 µM): 57% | residual activity (PTK6 (human); compound 10.0 µM): 15% | residual activity (SIK2 (human); compound 1.0 µM): 66% | residual activity (SIK2 (human); compound 10.0 µM): 21% | residual activity (SIK3 (human); compound 1.0 µM): 110% | residual activity (SIK3 (human); compound 10.0 µM): 88% | residual activity (STK16 (human); compound 1.0 µM): 97% | residual activity (STK16 (human); compound 10.0 µM): 96% | residual activity (STK24 (human); compound 1.0 µM): 97% | residual activity (STK24 (human); compound 10.0 µM): 81% | residual activity (STK33 (human); compound 1.0 µM): 39% | residual activity (STK33 (human); compound 10.0 µM): 22% | residual activity (TEK (human); compound 1.0 µM): 100% | residual activity (TEK (human); compound 10.0 µM): 85% | residual activity (TESK1 (human); compound 1.0 µM): 104% | residual activity (TESK1 (human); compound 10.0 µM): 98% | residual activity ([3]; compound 1.0 µM): 110% | residual activity ([3]; compound 10.0 µM): 102% | residual activity (TLK1 (human); compound 1.0 µM): 104% | residual activity (TLK1 (human); compound 10.0 µM): 101% | residual activity (TSSK1B (human); compound 1.0 µM): 12% | residual activity (TSSK1B (human); compound 10.0 µM): 3% | residual activity (TTBK1 (human); compound 1.0 µM): 100% | residual activity (TTBK1 (human); compound 10.0 µM): 84% | residual activity (TTBK2 (human); compound 1.0 µM): 95% | residual activity (TTBK2 (human); compound 10.0 µM): 74% | residual activity (ULK1 (human); compound 1.0 µM): 98% | residual activity (ULK1 (human); compound 10.0 µM): 47% | residual activity (ULK2 (human); compound 1.0 µM): 92% | residual activity (ULK2 (human); compound 10.0 µM): 61% | residual activity (WNK1 (human); compound 1.0 µM): 103% | residual activity (WNK1 (human); compound 10.0 µM): 104% | residual activity (ZAP70 (human); compound 1.0 µM): 102% | residual activity (ZAP70 (human); compound 10.0 µM): 79%

Cc1cccc(Nc2nn(C)c3ncnc(N)c23)c1
residual activity (AURKB (human); compound 1.0 µM): 96% | residual activity (AURKB (human); compound 10.0 µM): 87% | residual activity (AURKC (human); compound 1.0 µM): 92% | residual activity (AURKC (human); compound 10.0 µM): 117% | residual activity (CAMKK1 (human); compound 1.0 µM): 111% | residual activity (CAMKK1 (human); compound 10.0 µM): 114% | residual activity (NEK7 (human); compound 1.0 µM): 88% | residual activity (NEK7 (human); compound 10.0 µM): 91% | residual activity (PHKG1 (human); compound 1.0 µM): 106% | residual activity (PHKG1 (human); compound 10.0 µM): 101%
